Assay results reported in patent publication US7553821B2, “Methods for selectively modulating survivin apoptosis pathways” (Yale University, priority 2000, dated 2009).

Columns and labels:
[1] = test system: YUSAC-2 human melanoma cells; experiment: Melanoma tumor formation in CB.17 immunodeficient mice; assay type: in vivo, CB.17 SCID/beige mice
Method: To determine whether interference with survivin function by regulated expression of survivin antagonists could block melanoma tumor formation in CB.17 immunodeficient mice, mice were monitored for 8 weeks following subcutaneous injection, and tumor measurements taken at 4- and 8-week time points (Table I). It was determined that YUSAC-2 cells consistently form localized tumors in 6 to 8-week-old female CB.17 SCID/beige mice (Taconic Farms, Germantown, N.Y.) approximately 3-4 weeks following subcutaneous injection of 1-3×10^6 cells. Animals were monitored for up to 4 months, and neither mortality nor gross metastasis is associated with increasing tumor size (up to 5000 mm^3) or ulceration. One day prior to injection, mice were shaved on the right flank, and the regular drinking water was replaced with 5% sucrose alone or containing […] tet as described (Shockett et al., 1995). Cells were harvested in log-phase growth, washed twice in PBS, resuspended in PBS (12×10^6 cells per ml) and injected (0.25 ml, 3×10^6 cells) subcutaneously. The drinking water was changed every 2-3 days. Tumor size was determined by the product of two perpendicular diameters and the height above the skin surface.
Table 1. Summary of tumor formation for all animals. CB.17 mice were injected with cells and tet was added or withheld from the drinking water. […]

HeLa cells = experiment: DNA content by propidium iodide staining and flow cytometry in transfected HeLa cells; assay type: cell-based; details: gated GFP-expressing cells, 48 h after transfection
Method: HeLa cells were transfected with GFP-survivin(T34A) in the presence or in the absence of 20 μM of the caspase inhibitor, Z-VAD-fmk. Gated GFP-expressing cells were analyzed 48 h after transfection for DNA content by propidium iodide staining and flow cytometry. The percentages of apoptotic cells with sub-G1 (hypodiploid) […] DNA content are indicated. Apoptotic HeLa cells in GFP-vector transfectants were 8%. Data are representative of one experiment out of at least three independent determinations.
Transfection experiments. For transient transfection, HeLa cells in C-6 tissue culture plates (Costar, Cambridge, Mass.) at ˜60-70% confluency, were incubated in 1 ml of serum-free OptiMEM medium (Life Technologies, Gaithersburg, Md.) for 20 min, and transfected with 2.5 μg of the various plasmid cDNAs plus 9 μl Lipofectamine (Life Technologies). After a 5 h incubation at 37° C., the mixture was aspirated and substituted with complete growth medium for 48-72 h. To generate stable YUSAC-2 transfectants, a survivin(T34A) cDNA was inserted into the HindIII-SpeI sites of the pTet-splice vector (Dr. D. Schatz, Yale University School of Medicine), downstream of the regulatory sequences of the Tet-resistance operon (TetO). […] Gated GFP-expressing cells were analyzed for DNA content by flow cytometry on a FACSort (Becton Dickinson, San Jose, Calif.) using a Cell Quest software. […]

survivin(T34A): dominant-negative, non-phosphorylatable survivin mutant with Thr34→Ala substitution, expressed from transfected cDNA (also HA- or GFP-tagged)
Tumor size (mean ± standard deviation, only mice with tumors) ([1]; 8 Weeks, F5.C4 cells s.c., tet absent): 278 ± 116 mm^3
size and onset of tumors in tet-deprived animals compared to animals given tet ([1]; F5.C4 cells, two tet-deprived animals with tumors): considerably smaller in size and appeared with a markedly delayed onset
hypodiploid (sub-G1) DNA content (HeLa cells): resulted in the appearance of HeLa cells with hypodiploid (sub-G1) DNA content
